≈ marks a conversion by molar mass, not a printed value. Read-outs that look alike come from different tables or passages of the source.
Experiments:
[1] = test system: 8 ATCC reference strains and 10 clinical strains (E. coli, P. aeruginosa, S. aureus, E. faecalis, E. faecium, S. pneumoniae, H. influenzae, N. gonorrhoeae); assay: Inhibition of bacteria, MIC by broth microdilution (CLSI); assay type: cell-based
Method: Minimum inhibitory concentrations (MICs) were determined by the Broth microdilution method following the guidelines of the Clinical and Laboratory Standards Institute (CLSI). See, e.g., “Methods for Dilution Antimicrobial Susceptibility Tests for Bacterial That Grow Aerobically,” CLSI 2006, Approved standard-7th Ed. M7-A7; and “Performance standards for Antimicrobial Susceptibility Testing,” CLSI 2007, 17th Informational Supplement, M100-S17. Note that since there is no CLSI recommended broth microdilution (BMD) method for N. gonorrhoeae, the BMD method recommended for N. meningitis was used. Each of the three compounds was dissolved in water before sterile filtration to prepare stock solutions. The stock solutions were stored at −20° C. in aliquots. […] The 2× stock was dispensed at 50 μl per well into the 96-well microtitre plates. The plates were either used fresh or stored at −80° C. before use. To conduct the test, an aliquot of the frozen bacterial isolates was subcultured onto sheep blood agar for all species except that H. influenzae and N. gonorrhoeae were subculuted on chocolate plates. All plate media were purchased from BBL (Becton Dickinson Microbiology System, Cockeysville, Md.). The day before the antimicrobial susceptibility testing, all bacteria were sub-cultured again to obtain fresh starting cultures. […]

[2] = test system: S. pneumo-Levo (R): Clinical isolate of S. pnemoniae Levofloxacin resistant strains; assay: MIC by broth microdilution, levofloxacin-resistant S. pneumoniae; assay type: cell-based; details: Streptococcus pneumoniae
Method: (§1) Minimum inhibitory concentrations (MICs) were determined by the Broth microdilution method following the guidelines of the Clinical and Laboratory Standards Institute (CLSI). See, e.g., “Methods for Dilution Antimicrobial Susceptibility Tests for Bacterial That Grow Aerobically,” CLSI 2006, Approved standard-7th Ed. M7-A7; and “Performance standards for Antimicrobial Susceptibility Testing,” CLSI 2007, 17th Informational Supplement, M100-S17. Note that since there is no CLSI recommended broth microdilution (BMD) method for N. gonorrhoeae, the BMD method recommended for N. meningitis was used.
(§2) MICs were determined using the broth microdilution method.

[3] = Pharmacokinetic study in rats (IV and PO); assay type: in vivo; details: male, Sprague-Dawley, plasma, rat; for half-life: read-out: terminal half-life (t1/2) (converted); for bioavailability: oral, read-out: oral bioavailability (% F)
Method: Each of the malic acid salts of Compound 1 and Compound 1′ was dissolved in 0.7% lactic acid and 3% dextrose in water at a pH about 4.5 and 2.5% L-glutamic acid in water at a pH about 5.4 to provide solutions used in this pharmacokinetic study. Male Sprague-Dawley rats (BioLASCO Taiwan Co., Ltd., Taipei, Taiwan) weighing 300-400 g were surgically implanted with polyethylene (PE-50) cannula in the jugular vein for blood sampling while under pentobarbital anesthesia the day before the in-life phase. The rats were treated with a Compound 1 or Compound 1′ solution via intravenous injection (IV) at a dose of 2.5 mg/kg (N=3) or by oral gavage (PO) at a dose of 5 mg/kg (N=4). Dose levels were based on the free base form of the compounds. For PO study, the rats were fasted overnight with water ad libitum, and then dosed the next day. Serial blood samples were collected from animals pre-dose, at 5, 10 (IV only), 15, and 30 min, and at 1, 2, 4, 6, 8, 12, and 24 hours post-dose and heparinized plasma was recovered after centrifugation. Concentrations of the test compound in blood plasma were determined by liquid chromatography-mass spectrometry analysis (MDS SCIEX, API 3000, Applied Biosystems, CA, USA) with a lower limit of quantitation of 2 ng/mL. Standard pharmacokinetic parameters were assessed by non-compartmental analysis using WinNonlin (Version 4.0, Pharsight, CA, USA). The area under the concentration vs. time curve from the time of dosing to infinity (AUC(0-inf)) was calculated by the linear trapezoidal rule. Oral bioavailability (% F) was calculated from the dose-normalized ratio of plasma exposure following oral administration to the intravenous plasma exposure in the rats by the following equation: % F=(AUCpo/AUCiv)×(Div/Dpo)×100% where D is the dose and AUC is the area-under-the-plasma-concentration-time-curve from 0 to infinity.

[4] = test system: MRSA-CIP (R): Clinical isolate of MRSA-ciprofloxacin resistant strain; assay: MIC by broth microdilution, ciprofloxacin-resistant MRSA; assay type: cell-based, S. aureus; details: Staphylococcus aureus
Method: as §1, §2

[5] = test system: MRSA-CIP (S): Clinical isolate of MRSA-ciprofloxacin sensitive strain; assay: MIC by broth microdilution, ciprofloxacin-sensitive MRSA; assay type: cell-based; details: Staphylococcus aureus
Method: as §1, §2

[6] = test system: S. pneumo-Levo (S): Clinical isolate of S. pnemoniae Levofloxacin sensitive strains; assay: MIC by broth microdilution, levofloxacin-sensitive S. pneumoniae; assay type: cell-based; details: Streptococcus pneumoniae
Method: as §1, §2

MIC50 [2] [µg/mL] | MIC90 [2] [µg/mL] | AUC(0-inf) ([3]; IV injection, 2.5 mg/kg) [ng·h/mL] | half-life ([3]; IV injection, 2.5 mg/kg) [h] | AUC(0-inf) ([3]; PO, 5 mg/kg) [ng·h/mL] | Cmax ([3]; PO, 5 mg/kg, read-out: maximum of concentration (Cmax)) [ng/mL] | half-life ([3]; PO, 5 mg/kg) [h] | Tmax ([3]; PO, 5 mg/kg, read-out: time at the maximum of concentration (Tmax)) [h] | bioavailability ([3]; 5 mg/kg) [%] | MIC50 [4] [µg/mL] | MIC90 [4] [µg/mL] | MIC50 [5] [µg/mL] | MIC90 [5] [µg/mL] | MIC50 [6] [µg/mL] | MIC90 [6] [µg/mL] | SMILES | MICs against the tested bacterial strains, compared with ciprofloxacin [1] | efficacy in inhibiting bacteria compared to malic acid salt of Compound 1′ [1]
0.25 (≈ 0.673 µM) | 1 (≈ 2.69 µM) | 1530 ± 66 | 2.47 ± 0.801 | 1400 ± 464 | 622 ± 170 | 3.58 ± 1.7 | 0.25 | ~45.9 | 1 (≈ 2.69 µM) | 1 (≈ 2.69 µM) | 0.03 (≈ 0.0808 µM) | 0.06 (≈ 0.162 µM) | 0.03 (≈ 0.0808 µM) | 0.06 (≈ 0.162 µM) | COc1c(N2C[C@H](C)C[C@H](N)C2)ccc2c(=O)c(C(=O)O)cn(C3CC3)c12 [Compound 1, 7-((3S,5R)-3-amino-5-methylpiperidin-1-yl)-1-cyclopropyl-8-methoxy-4-oxo-1,4-dihydroquinoline-3-carboxylic acid] | low MICs comparable with, or even lower than, that of ciprofloxacin | more efficacious in inhibiting in some S. aureus, H. influenzae, and P. aeruginosa stains
0.5 (≈ 1.35 µM) | 2 (≈ 5.38 µM) |  |  |  |  |  |  | 13.2 ± 3.3 | 1 (≈ 2.69 µM) | 2 (≈ 5.38 µM) | 0.03 (≈ 0.0808 µM) | 0.06 (≈ 0.162 µM) | 0.06 (≈ 0.162 µM) | 0.06 (≈ 0.162 µM) | COc1c(N2C[C@@H](C)C[C@H](N)C2)ccc2c(=O)c(C(=O)O)cn(C3CC3)c12 [Compound 1′, reference compound] |  | 
> 128 |  |  |  |  |  |  |  |  |  |  |  |  | 16 (≈ 44.3 µM) |  | C[C@H]1COc2c(N3CCN(C)CC3)c(F)cc3c(=O)c(C(=O)O)cn1c23 [Levo, Levofloxacin] |  | 

From patent US20120157492A1, “ANTIBIOTIC DRUG” (priority 2008, published 2012)
